Like-named read-outs stand apart in the source and are kept apart here.
What was measured:
E. coli RTEM β-lactamase [1] = biological target: T1, E. coli RTEM β-lactamase (Escherichia coli, UniProt P62593); assay: in vitro treatment of E. coli RTEM β-lactamase (deactivation); type: biochemical; details: for turnovers before deactivation: number of molecules of compound needed to inactivate one β-lactamase molecule; for t1/2 for deactivation: in vitro, E. coli RTEM β-lactamase; for comparative efficacy as β-lactamase deactivating agent: in words, comparison of the four compounds of Table I
T1 construct: mature periplasmic enzyme

E. coli RTEM β-lactamase [2] = biological target: T1, E. coli RTEM β-lactamase; assay: rate constant (kcat) of the corresponding N-acyl derivative of 6-aminopenicillanic acid as β-lactamase substrate; type: biochemical
Source text: We believe the acyl-enzyme intermediates either deacylate (resulting in the undesirable restoration of the lactamase) or fragment (resulting in the desirable deactivation of the lactamase). […] This can be achieved by employing an N-acyl derivative of 6-aminopenicillanic acid sulfone in which the corresponding N-acyl derivative of 6-aminopenicillanic acid is a very poor substrate for β-lactamase. Since the rate constant (kcat) of an N-acyl derivative of 6-aminopenicillanic acid is a measure of its ability to act as a substrate, this constant provides the basis for defining the class of sulfones used in the invention.
Quinacillin sulfone's effectiveness is shown both by the low inactivation time, and by the low number of turnovers before inactivation (the low number of molecules of quinacillin sulfone needed to inactivate one β-lactamase molecule).

T1 sequence (P62593 24-286 limits assumed): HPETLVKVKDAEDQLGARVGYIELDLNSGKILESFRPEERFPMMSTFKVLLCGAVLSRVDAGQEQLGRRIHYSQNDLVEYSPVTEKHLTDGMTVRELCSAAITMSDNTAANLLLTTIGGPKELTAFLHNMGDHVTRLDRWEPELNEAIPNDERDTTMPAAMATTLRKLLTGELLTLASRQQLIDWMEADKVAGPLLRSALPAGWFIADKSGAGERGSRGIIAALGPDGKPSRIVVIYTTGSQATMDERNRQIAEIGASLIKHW

Structure (SMILES): CC1(C)[C@H](C(=O)O)N2C(=O)C[C@H]2S1(=O)=O [CP-45, 899, 6-des-aminopenicillanic acid sulfone, reference compound]
- turnovers before deactivation (E. coli RTEM β-lactamase [1]): 4,500
- kcat of corresponding N-acyl derivative of 6-aminopenicillanic acid (E. coli RTEM β-lactamase [2]): 40 s⁻¹

Structure (SMILES): Cc1onc(-c2ccccc2Cl)c1C(=O)N[C@@H]1C(=O)N2[C@@H](C(=O)O)C(C)(C)S(=O)(=O)[C@H]12 [cloxacillin sulfone]
- t1/2 for deactivation (E. coli RTEM β-lactamase [1]): 1.5 min
- comparative efficacy as β-lactamase deactivating agent (E. coli RTEM β-lactamase [1]): effective deactivating agents, though less effective than quinacillin sulfone
- turnovers before deactivation (E. coli RTEM β-lactamase [1]): 17,000

Structure (SMILES): COc1cccc(OC)c1C(=O)N[C@@H]1C(=O)N2[C@@H](C(=O)O)C(C)(C)S(=O)(=O)[C@H]12 [methicillin sulfone]
- t1/2 for deactivation (E. coli RTEM β-lactamase [1]): ~ 1 min
- comparative efficacy as β-lactamase deactivating agent (E. coli RTEM β-lactamase [1]): effective deactivating agents, though less effective than quinacillin sulfone
- turnovers before deactivation (E. coli RTEM β-lactamase [1]): 22,500

Structure (SMILES): CC1(C)[C@H](C(=O)O)N2C(=O)[C@@H](NC(=O)c3nc4ccccc4nc3C(=O)O)[C@H]2S1(=O)=O [quinacillin sulfone]
- t1/2 for deactivation (E. coli RTEM β-lactamase [1]): ~ 1 min
- comparative efficacy as β-lactamase deactivating agent (E. coli RTEM β-lactamase [1]): most effective of the four compounds listed
- turnovers before deactivation (E. coli RTEM β-lactamase [1]): 400

Structure (SMILES): CC1(C)S[C@@H]2[C@H](NC(=O)c3nc4ccccc4nc3C(=O)O)C(=O)N2[C@H]1C(=O)O [quinacillin]
- kcat of corresponding N-acyl derivative of 6-aminopenicillanic acid (E. coli RTEM β-lactamase [2]; value belongs to the parent (non-sulfone) penicillin corresponding to the listed sulfone, substrate capability for β-lactamase): lowest kcat value

From patent US4341766A, “Deactivation of antibiotic-hydrolyzing enzymes” (priority 1980, dated 1982)
